From patent publication US6716858B1, “Methods for inhibiting diabetic complications” (Kansas University Medical Center, priority 1995, dated 2004)

How the values were obtained:
[1] = tested on: streptozotocin-induced diabetic rat; assay: STZ diabetic rat model, AGEs and crosslinking of collagen; assay type: in vivo; settings: for CML, CEL or pentosidine content of kidney collagen / gain in kidney weight / FL in skin collagen, below untreated diabetic animals / decrease of CML, CEL and fluorescence content of skin collagen toward non-diabetic levels / reduction of half-time for digestion of collagen toward normal / body weight / CML concentration in skin collagen / half-time for pepsin digestion of skin collagen / CEL in renal basement membrane collagen / CML in renal basement membrane collagen / Pentosidine in renal basement membrane collagen: diabetic rats; for FL in skin collagen, below untreated diabetic animals: 1 g/L in drinking water, week 28; for decrease of CML, CEL and fluorescence content of skin collagen toward non-diabetic levels / reduction of half-time for digestion of collagen toward normal: 7 months of diabetes; for body weight: 28 weeks; for CML concentration in skin collagen: drug in drinking water, end of study, untreated diabetic 0.124±0.01, non-diabetic 0.057±0.01; for half-time for pepsin digestion of skin collagen: control 90, untreated diabetic 450; for CEL in renal basement membrane collagen: untreated diabetic 0.08 ±0.01; for CML in renal basement membrane collagen: untreated diabetic 0.25 ± 0.04; for Pentosidine in renal basement membrane collagen: untreated diabetic 3.17 ± 1.10; for decrease in collagen-linked fluorescence toward values in non-diabetic rats: skin collagen
Protocol: Animal studies. Diabetes was induced by a single tail vein injection of 45 mg/kg of STZ in 0.1 M sodium citrate buffer, pH 4.5. Control animals were sham injected with buffer only. Diabetes was confirmed by measuring blood glucose levels at 2 and 3 days after the STZ-injection. Animals with plasma glucose higher than 16 mM were classified as diabetic. The diabetic rats were divided randomly into an untreated diabetic group (n=12) and two diabetic treatment groups, receiving either PM (n=13) or AG (n=12) at 1 g/L in drinking water. Two non-diabetic control groups were included, one receiving no treatment (n=13), the other receiving PM(HCl)2 at 2 g/L in drinking water (n=12); the higher dose of PM in the PM-treated control group was designed to compensate, in part, for the lower water intake of non-diabetic, compared to diabetic animals. All animals were housed individually with a light dark cycle of 12 hours each, and had free access to food and water. To maintain body weight and to limit hyperglycemia, diabetic animals received 3 IU of ultralente insulin (Humulin U, Eli Lilly) three times per week; this was increased to 5 IU after week 15 to adjust for the increase in body weight.
Glycemic control. Glycemia was monitored by measurement of plasma glucose and glycated hemoglobin every four weeks, using a Sigma Trinder assay Kit (Sigma # 315). Blood (non-fasting) was obtained from the tail vein, using heparinized microhematocrit tubes, followed by sedimentation of red blood cells (RBC) in a bench-top microhematocrit centrifuge. A sample of plasma (5 μL) or glucose standard was mixed with 300 μL of reagent in a 96-well microtiter plate. The plate was shaken for 18 min and the absorbance at 490 nm was measured in a Wallac Victor 1420 multilabel counter (Wallac Inc. Gaithersburg, Md.). Glycated hemoglobin (GlcHb) was measured on whole blood by boronate affinity chromatography using a Sigma kit for total glycated hemoglobin (Sigma # 442-B).
Necropsy and tissue sampling. Rats were treated according to the guidelines of the Institutional Animal Care and Use Committee of the University of South Carolina. Blood was drawn from anaesthetized (halothane) rats by heart puncture and transferred into heparinized vacutainer tubes on ice; an aliquot was removed for analysis of glycated hemoglobin. Rats were then killed by over-anesthetization, and liver and kidneys were removed, the kidney decapsulated, and both organs rinsed in PBS buffer, and weighed. The right kidney was cut in half transversely, and one half was removed for fixation for electron and light microscopy. The remainder of the right kidney and the whole left kidney were frozen at −70° C. until processed for isolation of collagen. Abdominal skin (2 cm^2) was also removed, rinsed in phosphate buffered saline (PBS) and stored at −70° C. Blood was separated into plasma and RBC within 30 minutes by centrifugation in a refrigerated benchtop centrifuge. RBCs were lysed in an equal volume of deionized water, and plasma and RBC lysates were stored at −70° C.
Isolation and analysis of collagen. The insoluble fraction of skin collagen was prepared by scraping the skin with a single-edged razor blade to remove hair and adventitious tissue, followed by a series of extractions with 0.5 M NaCl, 0.5 M acetic acid and chloroform/methanol (2:1 v/v), as described previously (Dyer, et al. 1993. J. Clin. Invest. 91:2463-2469). Total renal collagen was prepared from ˜1.5 kidneys by an adaptation of the procedure of Fox et al. (J. Biol. Chem. 256:9313-9315 (1981)). Briefly, kidneys were minced and homogenized with a hand-held glass homogenizer in 10 mL of ice-cold water, containing 1 mM EDTA and 0.05% sodium azide. Remaining intact cells and subcellular organelles were then lysed by addition of another 15 mL of water, followed by incubation for 1 hour at 4° C., then centrifugation of the lysate for 30 minutes at 10,000 rpm at 4° C. in a Beckman (Palo Alto, Calif.) J-21 centrifuge. […]

[2] = tested on: AGE formation during uninterrupted glycation of human methemoglobin (Hb) by ribose; assay: Uninterrupted ribose glycation assay, Hb; assay type: biochemical; settings: 0.05 M ribose, 3 weeks
Protocol: ELISA detection of AGE products. The general method of Engvall (1981, Methods Enzymol. 70:419-439) was used to perform the ELISA. Typically, glycated protein samples were diluted to approximately 1.5 ug/ml in 0.1 M sodium carbonate buffer of pH 9.5 to 9.7. The protein was coated overnight at room temperature onto 96-well polystyrene plates by pippetting 200 ul of the protein solution in each well (0.3 ug/well). After coating, the protein was washed from the wells with a saline solution containing 0.05% Tween-20. The wells were then blocked with 200 ul of 1% casein in carbonate buffer for 2 h at 37° C. followed by washing. […] In order to minimize background readings, antibodies R479 used to detect glycated RNase were raised against glycated BSA, and antibodies R618 used to detect glycated BSA and glycated Hb were raised against glycated RNase. […] The p-nitrophenylphosphate substrate solution was then added (200 ul/well) to the plates, with the absorbance of the released p-nitrophenolate being monitored at 410 nm with a Dynatech MR 4000 microplate reader.
Uninterrupted ribose glycation assays Bovine serum albumin, ribonuclease A, and human hemoglobin were incubated with ribose at 37° C. in 0.4 M sodium phosphate buffer of pH 7.5 containing 0.02% sodium azide. […] Aliquots were taken and immediately frozen until analyzed by ELISA at the conclusion of the reaction. […]

| SMILES | CML, CEL or pentosidine content of kidney collagen [1] | gain in kidney weight [1] | FL in skin collagen, below untreated diabetic animals [1] [%] | decrease of CML, CEL and fluorescence content of skin collagen toward non-diabetic levels [1] [%] | reduction of half-time for digestion of collagen toward normal [1] [%] | body weight [1] | CML concentration in skin collagen [1] [mmol/mol lysine] | half-time for pepsin digestion of skin collagen [1] [min] | CEL in renal basement membrane collagen [1] | CML in renal basement membrane collagen [1] [mmol/mol Lys] | Pentosidine in renal basement membrane collagen [1] | decrease in collagen-linked fluorescence toward values in non-diabetic rats [1] [%] | inhibition of overall kinetics of AGE formation from ribose [2] |
| --- | --- | --- | --- | --- | --- | --- | --- | --- | --- | --- | --- | --- | --- |
| N=C(N)NN [aminoguanidine, reference compound] | not a significant decrease | partially inhibit the gain in kidney weight | ~12 | ~50 | ~25 | weighed slightly less than the untreated diabetic group | 0.10±0.02 | 300 | 0.07 ± 0.008^C mmol/mol Lys | 0.24 ± 0.05 | 2.47 ± 0.64^D μmol/mol Lys | ~40 | – |
| Cc1ncc(CO)c(CN)c1O [pyridoxamine] | not a significant decrease | partially inhibit the gain in kidney weight | ~12 | ~50 | ~25 | weighed slightly less than the untreated diabetic group | 0.092±0.02 | 350 | 0.08 ± 0.008 mmol/mol Lys | 0.23 ±0.03 | 3.00 ± 0.90 μmol/mol Lys | ~40 | showed the greatest inhibition at concentrations of 3 mM and above |
